{"source": "patent US20100324017A1", "about": "“ACYLGUANIDINE DERIVATIVE” (priority 2007, published 2010)", "tested_on": "PCP-induced prepulse inhibition (PPI) disorder", "assay": "Disorder of PCP-induced prepulse inhibition (PPI) in a rat", "format": "in vivo", "conditions": "dose 10 mg/kg, PCP 1 mg/kg s.c., % PPI", "experimental": "An Improvement Effect for a Disorder of PCP-Induced Prepulse Inhibition (PPI) in a Rat\nA startle amplitude occurs in humans to which an sound stimulus has been given, but in healthy human, this startle amplitude is inhibited by the giving of a weak sound stimulus that precedes the sound stimulus. For a patient with schizophrenia, the inhibitory function similarly declined. It is known that when a rat is administered with PCP (phencyclidine), there is a symptom similar to the negative symptom of schizophrenia in humans. Using this model, the improvement effect of the compound (I) for the information processing disorder included in cognitive impairment of schizophrenia was evaluated.\nSpecies: Male Wistar rat/number of the animals (number of animals per group): 12 animals per group\nStartle amplitude measuring device for small animals: an SR-LAB ABS system (manufactured by San Diego Instruments)\nAn animal holder, to which a Plexiglas-made cylinder for animal storage having a diameter of 8.2 cm was attached, was positioned in the upper part of a Plexiglas-made frame in a measurement box. In the measurement box, a sound-insulating treatment and ventilation (FAN) were carried out. Sound was administered by a speaker attached to the 24 cm upper part of the cylinder. The movement of the animals in the cylinder was detected by a transducer attached in the lower part of the frame and recorded by a microcomputer via an interface.\nThe experiment was initiated after the animals were put into the chamber for measurement and had spent 10 minutes adapting to the measurement environment. Basically, at 35 minutes after the compound to be tested was orally administered, 1 mg/kg of PCP was subcutaneously administered (1 ml/kg). Five minutes later, the rats were put into a chamber for measurement, allowed to adapt for 10 minutes, and the measurement was then initiated. A white noise of 65 dB (for all frequencies, a disordered noise having a constant energy per unit band) used as a background noise was always played through the break periods and the sessions. The three types of trials as shown below were carried out in a random order 10 times for each type with 30 times in total. Each trial was carried out at a pseudo-random interval of 20 to 60 seconds with an average of 40 seconds. A pulse was defined as a white noise of 120 dB, 20 msec, and a prepulse was defined as a white noise of 70, 80 dB, 20 msec.\nThe startle amplitude of the animal was measured for 100 msec from the initiation of the pulse, and the maximum value was taken as a “maximum startle amplitude (Vmax))”. The “maximum startle amplitude” for the ten times for each of the three types of trials were averaged, and taken as a “startle amplitude (simply referred to as SA)” under the stimulation condition.\nThe % prepulse inhibition (% PPI) was calculated in the following equation in the PP80 & P trial of 3) above.\n% Prepulse inhibition (% PPI)=(Startle amplitude at P-alone trial (SA)−Startle amplitude (SA) at a PP80 & P trial)/Startle amplitude at P alone trial×100\nThe measured value was expressed as an average value (mean±SE). First, the startle amplitudes (SA) were statistically analyzed. […] For the measured data of % PPI, the normal group and the control group (the group administered with PCP) were compared by a Student t-test, and for the control group and the group administered with the compound to be tested were compared using a Dunnett evaluation. […] The effect of the compound to be tested was assessed with % PPI.", "data": [{"smiles": "OCCOCCN1CCN(C2=Nc3ccccc3Sc3ccccc32)CC1", "note": "[quetiapine, reference compound]", "values": [{"measurement": "improvement of the PCP-induced PPI", "result": "significantly improved"}]}]}
